PMC4904262 (ACS Medicinal Chemistry Letters, 2016)

Assays:
Conditions in all cases: 1 µM, ATP at Km
ARK5 = ARK5 (Homo sapiens, UniProt O60285)
ASK1 = ASK1 (Homo sapiens, UniProt Q99683)
AXL = AXL (Homo sapiens, UniProt P30530)
CAMKIV = CAMKIV (Homo sapiens, UniProt Q16566)
CDK2/CYCLINA = CDK2/CYCLINA (Homo sapiens, UniProt P24941)
CDK3/CYCLINE = CDK3/CYCLINE (Homo sapiens, UniProt Q00526)
CDK5/P25 = CDK5/P25 (Homo sapiens, UniProt Q00535)
CHK1 = CHK1 (Homo sapiens, UniProt O14757)
CK2 = CK2 (Homo sapiens, UniProt P68400)
EEF-2K = EEF-2K (Homo sapiens, UniProt O00418)
EPHA2 = EPHA2 (Homo sapiens, UniProt P29317)
FLT3 = FLT3 (Homo sapiens, UniProt P36888)
IGF-1R = IGF-1R (Homo sapiens, UniProt P08069)
IRR = IRR (Homo sapiens, UniProt P14616)
IRAK4 = IRAK4 (Homo sapiens, UniProt Q9NWZ3)
JAK2 = JAK2 (Homo sapiens, UniProt O60674)
JNK3 = JNK3 (Homo sapiens, UniProt P53779)
LIMK1 = LIMK1 (Homo sapiens, UniProt P53667)
LKB1 = LKB1 (Homo sapiens, UniProt Q15831)
MLK1 = MLK1 (Homo sapiens, UniProt P80192)
NEK11 = NEK11 (Homo sapiens, UniProt Q8NG66)
PAK2 = PAK2 (Homo sapiens, UniProt Q13177)
PAK5 = PAK5 (Homo sapiens, UniProt Q9P286)
PDK1 = PDK1 (Homo sapiens, UniProt O15530)
PI3K GAMMA = PI3K GAMMA (Homo sapiens, UniProt P48736)
PKCBII = PKCBII (Homo sapiens, UniProt P05771)
PKCETA = PKCETA (Homo sapiens, UniProt P24723)
PRKCQ = PRKCQ (Homo sapiens, UniProt Q04759)
PYK2 = PYK2 (Homo sapiens, UniProt Q14289)
RSK1 = RSK1 (Homo sapiens, UniProt Q15418)
SAPK3 = SAPK3 (Homo sapiens, UniProt P53778)
SGK3 = SGK3 (Homo sapiens, UniProt Q96BR1)
SRC = SRC (Homo sapiens, UniProt P12931)
SYK = SYK (Homo sapiens, UniProt P43405)
CK1GAMMA2 = CK1GAMMA2 (Homo sapiens, UniProt P78368)
CK1GAMMA3 = CK1GAMMA3 (Homo sapiens, UniProt Q9Y6M4)
CLK3 = CLK3 (Homo sapiens, UniProt P49761)
MER = MER (Homo sapiens, UniProt Q12866)
[…] = […] (Homo sapiens, UniProt Q8IU85)
VRK2 = VRK2 (Homo sapiens, UniProt Q86Y07)
TAO2 = TAO2 (Homo sapiens, UniProt Q9UL54)
GCK = GCK (Homo sapiens, UniProt Q12851)
TLK2 = TLK2 (Homo sapiens, UniProt Q86UE8)
GRK7 = GRK7 (Homo sapiens, UniProt Q8WTQ7)
IR, ACTIVATED = IR, ACTIVATED (Homo sapiens, UniProt P06213)

ASK1, sequence (Q99683 whole entry): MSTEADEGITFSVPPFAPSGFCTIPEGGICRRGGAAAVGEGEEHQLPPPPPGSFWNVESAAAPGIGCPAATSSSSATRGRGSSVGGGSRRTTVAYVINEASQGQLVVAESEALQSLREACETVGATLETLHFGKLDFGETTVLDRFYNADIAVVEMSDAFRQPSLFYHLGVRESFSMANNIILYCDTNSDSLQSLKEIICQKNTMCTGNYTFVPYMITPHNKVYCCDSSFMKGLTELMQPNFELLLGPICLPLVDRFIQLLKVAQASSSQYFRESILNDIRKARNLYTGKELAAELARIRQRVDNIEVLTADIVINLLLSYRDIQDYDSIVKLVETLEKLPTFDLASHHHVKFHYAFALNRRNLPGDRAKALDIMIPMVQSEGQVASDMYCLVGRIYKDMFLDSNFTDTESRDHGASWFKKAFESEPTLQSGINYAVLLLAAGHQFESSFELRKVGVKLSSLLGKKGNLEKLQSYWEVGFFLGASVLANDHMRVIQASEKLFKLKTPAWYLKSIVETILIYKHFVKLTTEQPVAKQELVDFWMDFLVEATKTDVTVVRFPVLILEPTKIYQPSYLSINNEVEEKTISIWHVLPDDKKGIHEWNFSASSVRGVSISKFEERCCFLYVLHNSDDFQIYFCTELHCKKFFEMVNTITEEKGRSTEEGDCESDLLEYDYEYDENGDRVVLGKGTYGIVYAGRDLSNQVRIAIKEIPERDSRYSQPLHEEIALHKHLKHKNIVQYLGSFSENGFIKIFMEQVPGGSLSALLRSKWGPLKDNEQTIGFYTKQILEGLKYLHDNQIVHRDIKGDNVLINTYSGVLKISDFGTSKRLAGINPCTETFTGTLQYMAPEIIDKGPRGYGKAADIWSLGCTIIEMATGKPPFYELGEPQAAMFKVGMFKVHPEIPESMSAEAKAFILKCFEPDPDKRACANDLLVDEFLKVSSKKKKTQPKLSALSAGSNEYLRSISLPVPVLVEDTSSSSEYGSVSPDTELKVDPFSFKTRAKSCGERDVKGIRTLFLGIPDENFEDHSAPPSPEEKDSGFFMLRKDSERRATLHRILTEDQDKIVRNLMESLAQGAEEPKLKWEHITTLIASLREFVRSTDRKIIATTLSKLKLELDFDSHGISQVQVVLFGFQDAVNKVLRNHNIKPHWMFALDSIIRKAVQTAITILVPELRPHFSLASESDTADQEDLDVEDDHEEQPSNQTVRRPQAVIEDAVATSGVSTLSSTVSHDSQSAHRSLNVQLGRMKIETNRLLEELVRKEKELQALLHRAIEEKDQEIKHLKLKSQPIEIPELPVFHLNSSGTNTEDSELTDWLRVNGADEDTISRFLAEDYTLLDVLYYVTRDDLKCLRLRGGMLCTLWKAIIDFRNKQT
CK1GAMMA2, sequence (P78368 whole entry): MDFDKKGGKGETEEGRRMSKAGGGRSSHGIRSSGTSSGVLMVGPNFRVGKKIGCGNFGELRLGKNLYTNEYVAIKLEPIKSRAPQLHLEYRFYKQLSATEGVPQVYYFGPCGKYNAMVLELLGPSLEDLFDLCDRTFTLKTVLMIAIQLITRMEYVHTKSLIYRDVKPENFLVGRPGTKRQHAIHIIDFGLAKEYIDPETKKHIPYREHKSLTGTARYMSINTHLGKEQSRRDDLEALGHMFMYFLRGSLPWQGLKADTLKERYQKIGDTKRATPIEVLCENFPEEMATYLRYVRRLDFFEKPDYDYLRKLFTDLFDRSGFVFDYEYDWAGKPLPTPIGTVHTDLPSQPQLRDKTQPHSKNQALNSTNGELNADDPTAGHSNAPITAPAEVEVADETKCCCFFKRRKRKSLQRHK
PKCETA, sequence (P24723 whole entry): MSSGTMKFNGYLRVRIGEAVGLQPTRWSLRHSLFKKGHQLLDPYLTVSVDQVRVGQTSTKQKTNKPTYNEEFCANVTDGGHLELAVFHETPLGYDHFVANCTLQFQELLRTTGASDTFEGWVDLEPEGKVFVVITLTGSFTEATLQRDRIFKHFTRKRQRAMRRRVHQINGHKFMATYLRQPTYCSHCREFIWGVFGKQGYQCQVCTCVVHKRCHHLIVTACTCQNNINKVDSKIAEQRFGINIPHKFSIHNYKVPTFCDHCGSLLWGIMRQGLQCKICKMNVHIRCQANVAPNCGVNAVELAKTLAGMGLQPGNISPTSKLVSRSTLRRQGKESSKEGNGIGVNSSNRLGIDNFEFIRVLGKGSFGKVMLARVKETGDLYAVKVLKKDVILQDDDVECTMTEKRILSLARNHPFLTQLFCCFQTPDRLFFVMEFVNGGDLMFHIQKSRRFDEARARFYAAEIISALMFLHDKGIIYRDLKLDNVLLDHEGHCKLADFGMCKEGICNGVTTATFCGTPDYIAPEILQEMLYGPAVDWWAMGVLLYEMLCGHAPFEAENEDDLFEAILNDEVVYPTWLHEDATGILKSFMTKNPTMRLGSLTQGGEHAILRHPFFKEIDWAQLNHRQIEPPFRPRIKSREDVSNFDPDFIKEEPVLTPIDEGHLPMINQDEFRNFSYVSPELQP
IRAK4, sequence (Q9NWZ3 whole entry): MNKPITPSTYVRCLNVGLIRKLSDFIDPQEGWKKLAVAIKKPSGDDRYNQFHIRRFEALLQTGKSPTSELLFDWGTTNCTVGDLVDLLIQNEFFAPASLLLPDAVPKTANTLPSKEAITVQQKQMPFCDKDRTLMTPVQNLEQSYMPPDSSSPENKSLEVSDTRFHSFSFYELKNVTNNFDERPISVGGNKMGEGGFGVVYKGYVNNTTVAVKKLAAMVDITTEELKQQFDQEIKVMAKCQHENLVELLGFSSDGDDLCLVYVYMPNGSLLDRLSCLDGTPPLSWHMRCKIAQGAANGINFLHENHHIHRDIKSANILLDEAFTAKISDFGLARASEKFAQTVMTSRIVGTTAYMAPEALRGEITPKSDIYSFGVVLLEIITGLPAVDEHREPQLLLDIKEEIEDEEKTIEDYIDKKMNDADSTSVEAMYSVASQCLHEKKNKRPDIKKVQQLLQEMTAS
PRKCQ, sequence (Q04759 whole entry): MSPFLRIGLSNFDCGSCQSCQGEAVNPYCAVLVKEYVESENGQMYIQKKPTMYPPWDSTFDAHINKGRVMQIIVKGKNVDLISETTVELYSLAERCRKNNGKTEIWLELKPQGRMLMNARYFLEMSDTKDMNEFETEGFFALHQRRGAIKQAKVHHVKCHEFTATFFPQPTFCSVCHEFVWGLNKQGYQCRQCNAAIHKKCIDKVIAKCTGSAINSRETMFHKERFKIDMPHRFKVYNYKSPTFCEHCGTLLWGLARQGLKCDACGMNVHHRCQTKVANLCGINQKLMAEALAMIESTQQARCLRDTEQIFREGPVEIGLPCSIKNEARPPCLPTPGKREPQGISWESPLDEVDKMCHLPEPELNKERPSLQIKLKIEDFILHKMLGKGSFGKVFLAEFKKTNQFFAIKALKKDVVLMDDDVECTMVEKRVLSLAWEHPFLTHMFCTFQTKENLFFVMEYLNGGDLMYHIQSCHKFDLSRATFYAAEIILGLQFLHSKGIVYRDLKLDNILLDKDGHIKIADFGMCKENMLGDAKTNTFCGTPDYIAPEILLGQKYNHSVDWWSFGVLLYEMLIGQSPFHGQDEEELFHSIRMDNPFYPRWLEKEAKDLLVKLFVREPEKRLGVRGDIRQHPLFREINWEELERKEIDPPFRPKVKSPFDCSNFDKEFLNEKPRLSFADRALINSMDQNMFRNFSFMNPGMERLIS
TLK2, sequence (Q86UE8 whole entry): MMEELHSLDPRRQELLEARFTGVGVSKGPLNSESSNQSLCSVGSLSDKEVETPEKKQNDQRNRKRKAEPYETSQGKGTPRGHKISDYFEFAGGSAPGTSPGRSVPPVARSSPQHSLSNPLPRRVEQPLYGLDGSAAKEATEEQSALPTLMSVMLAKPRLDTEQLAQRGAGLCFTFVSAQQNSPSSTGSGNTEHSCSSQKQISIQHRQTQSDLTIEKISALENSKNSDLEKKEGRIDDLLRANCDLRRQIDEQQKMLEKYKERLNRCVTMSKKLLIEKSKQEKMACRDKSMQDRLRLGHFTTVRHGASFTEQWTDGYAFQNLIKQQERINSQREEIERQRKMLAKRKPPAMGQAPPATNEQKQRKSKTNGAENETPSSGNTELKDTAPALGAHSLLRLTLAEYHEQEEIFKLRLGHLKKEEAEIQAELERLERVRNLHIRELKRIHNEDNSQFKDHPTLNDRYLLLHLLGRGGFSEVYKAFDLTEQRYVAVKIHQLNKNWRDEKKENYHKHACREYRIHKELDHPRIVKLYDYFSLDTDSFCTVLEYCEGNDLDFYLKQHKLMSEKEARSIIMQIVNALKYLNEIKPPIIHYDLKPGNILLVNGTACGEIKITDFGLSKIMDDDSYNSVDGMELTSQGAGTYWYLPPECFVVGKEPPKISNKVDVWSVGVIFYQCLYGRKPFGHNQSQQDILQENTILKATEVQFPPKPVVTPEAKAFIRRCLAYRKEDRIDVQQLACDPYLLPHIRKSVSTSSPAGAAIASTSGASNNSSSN
PAK2, sequence (Q13177 whole entry): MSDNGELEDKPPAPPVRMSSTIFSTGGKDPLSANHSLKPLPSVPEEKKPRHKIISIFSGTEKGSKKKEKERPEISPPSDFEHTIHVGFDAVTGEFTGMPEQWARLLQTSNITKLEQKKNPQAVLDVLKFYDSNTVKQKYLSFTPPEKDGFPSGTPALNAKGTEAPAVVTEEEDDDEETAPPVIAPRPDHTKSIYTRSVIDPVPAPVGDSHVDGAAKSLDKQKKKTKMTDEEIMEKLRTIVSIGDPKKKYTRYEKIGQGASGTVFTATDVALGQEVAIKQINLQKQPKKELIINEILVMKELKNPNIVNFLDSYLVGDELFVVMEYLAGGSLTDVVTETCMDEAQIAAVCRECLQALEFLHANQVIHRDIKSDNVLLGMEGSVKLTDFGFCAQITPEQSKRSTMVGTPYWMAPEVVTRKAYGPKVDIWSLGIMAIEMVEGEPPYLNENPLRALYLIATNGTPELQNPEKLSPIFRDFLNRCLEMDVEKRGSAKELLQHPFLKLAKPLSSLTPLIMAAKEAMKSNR

For `COC1CN(C(=O)c2ccc3c(N)ncc(-c4ccc(-c5cnn(C)c5)cc4)c3n2)C1` [Compound 51], the percentage effect (ARK5) was 2%, the percentage effect (ASK1) was 0% and the percentage effect (AXL) was 27%. The percentage effect (CAMKIV) was -17%, the percentage effect (CDK2/CYCLINA) was 5% and the percentage effect (CDK3/CYCLINE) was 4%. For the same compound, the percentage effect (CDK5/P25) was 3%, the percentage effect (CHK1) was -8% and the percentage effect (CK2) was 5%. The percentage effect (EEF-2K) was 2%, the percentage effect (EPHA2) was -12% and the percentage effect (FLT3) was 0%. The percentage effect (IGF-1R) was 19%, the percentage effect (IRR) was -2% and the percentage effect (IRAK4) was -9%. It also gave a percentage effect (JAK2) of -2%, a percentage effect (JNK3) of -33% and a percentage effect (LIMK1) of 0%. It also gave a percentage effect (LKB1) of -5%, a percentage effect (MLK1) of -3% and a percentage effect (NEK11) of 3%. For the same compound, the percentage effect (PAK2) was -17%, the percentage effect (PAK5) was -23% and the percentage effect (PDK1) was -8%. For the same compound, the percentage effect (PI3K GAMMA) was -18%, the percentage effect (PKCBII) was -4% and the percentage effect (PKCETA) was 5%. For the same compound, the percentage effect (PRKCQ) was 5%, the percentage effect (PYK2) was -4% and the percentage effect (RSK1) was 13%. It also gave a percentage effect (SAPK3) of -11%, a percentage effect (SGK3) of -13% and a percentage effect (SRC) of 7%. For the same compound, the percentage effect (SYK) was -10%, the percentage effect (CK1GAMMA2) was -24% and the percentage effect (CK1GAMMA3) was -18%. For the same compound, the percentage effect (CLK3) was 2%, the percentage effect (MER) was -3% and the percentage effect ([…]) was -3%. For the same compound, the percentage effect (VRK2) was 4%, the percentage effect (TAO2) was -5% and the percentage effect (GCK) was -26%. For the same compound, the percentage effect (TLK2) was 2%, the percentage effect (GRK7) was 3% and the percentage effect (IR, ACTIVATED) was -15%.
In the case of `COC1CN(C(=O)c2ccc3c(N)ncc(-c4ccc(-c5cnn(C)c5)cc4)c3c2)C1` [Compound 59], the percentage effect (ARK5) is reported as -14%, the percentage effect (ASK1) is reported as -10% and the percentage effect (AXL) is reported as -12%. For the same compound, the percentage effect (CAMKIV) was 23%, the percentage effect (CDK2/CYCLINA) was -5% and the percentage effect (CDK3/CYCLINE) was -5%. It also gave a percentage effect (CDK5/P25) of 11%, a percentage effect (CHK1) of -9% and a percentage effect (CK2) of 8%. It also gave a percentage effect (EEF-2K) of 8%, a percentage effect (EPHA2) of 7% and a percentage effect (FLT3) of 16%. It also gave a percentage effect (IGF-1R) of 9%, a percentage effect (IRR) of -5% and a percentage effect (IRAK4) of 1%. For the same compound, the percentage effect (JAK2) was 3%, the percentage effect (JNK3) was -8% and the percentage effect (LIMK1) was 5%. It also gave a percentage effect (LKB1) of -10%, a percentage effect (MLK1) of -30% and a percentage effect (NEK11) of -22%. For the same compound, the percentage effect (PAK2) was -18%, the percentage effect (PAK5) was -7% and the percentage effect (PDK1) was -10%. The percentage effect (PI3K GAMMA) was -7%, the percentage effect (PKCBII) was -3% and the percentage effect (PKCETA) was -4%. It also gave a percentage effect (PRKCQ) of -12%, a percentage effect (PYK2) of -1% and a percentage effect (RSK1) of -14%. The percentage effect (SAPK3) was -11%, the percentage effect (SGK3) was 9% and the percentage effect (SRC) was -6%. It also gave a percentage effect (SYK) of -11%, a percentage effect (CK1GAMMA2) of -9% and a percentage effect (CK1GAMMA3) of 19%. The percentage effect (CLK3) was -19%, the percentage effect (MER) was -4% and the percentage effect ([…]) was 5%. For the same compound, the percentage effect (VRK2) was -3%, the percentage effect (TAO2) was -7% and the percentage effect (GCK) was 1%. The percentage effect (TLK2) was -5%, the percentage effect (GRK7) was 8% and the percentage effect (IR, ACTIVATED) was -2%.
